Test results taken from ChEMBL document CHEMBL1129576, “Nucleosides and nucleotides. 158. 1-(3-C-ethynyl-beta-D-ribo-pentofuranosyl)-cytosine, 1-(3-C-ethynyl-beta-D-ribo-pentofuranosyl)uracil, and their nucleobase analogues as new potential multifunctional antitumor nucleosides with a broad spectrum of activity” (J Med Chem, 1996).
pIC50: −log10 of the molar value.

Key:
L1210 = test: In vitro tumor cell growth inhibitory activity against mouse leukemia L1210 cell lines.; format: functional, cell-based
KB = test: In vitro tumor cell growth inhibitory activity against human nasopharyngeal KB cell lines; format: functional, cell-based
Mus musculus [1] = test: In vivo tumor cell growth inhibitory activity against Hucc-T1 cells tumor xenograft of bile duct in nude mice at a concentration of 15 mg/kg for 15 days; format: functional
Mus musculus [2] = test: In vivo inhibitory activity against BxPC-3 tumor xenograft of pancreas in nude mice at a concentration of 15 mg/kg for 15 days; format: functional
Mus musculus [3] = test: In vivo tumor cell growth inhibitory activity of H-81 tumor xenograft of stomach in nude mice at a concentration of 15 mg/kg for 15 days; format: functional
Mus musculus [4] = test: In vivo tumor cell growth inhibitory activity against AZ-521 tumor xenograft of stomach in nude mice at a concentration of 15 mg/kg for 15 days; format: functional
Mus musculus [5] = test: In vivo tumor cell growth inhibitory activity against JRC-11 cells tumor xenograft of renal in nude mice at a concentration of 15 mg/kg for 15 days; format: functional
Mus musculus [6] = test: In vivo tumor cell growth inhibitory activity against KM12C tumor xenograft of […] in nude mice at a concentration of 15 mg/kg for 15 days; format: functional
Mus musculus [7] = test: In vivo tumor cell growth inhibitory activity of CO-3 tumor xenograft of […] in nude mice at a concentration of 15 mg/kg for 15 days; format: functional
Mus musculus [8] = test: In vivo inhibitory activity against PAN-12 tumor xenograft of pancreas in nude mice at a concentration of 15 mg/kg for 15 days; format: functional
Mus musculus [9] = test: In vivo tumor cell growth inhibitory activity against H-31 cells tumor xenograft of breast in nude mice at a concentration of 15 mg/kg for 15 days; format: functional
Mus musculus [10] = test: In vivo tumor cell growth inhibitory activity against DLD-1 tumor xenograft of […] in nude mice at a concentration of 15 mg/kg for 15 days; format: functional

In the case of `C#C[C@]1(O)[C@@H](CO)OC(n2cc(F)c(N)nc2=O)[C@@H]1O` (single isomer, unassigned), the pIC50 (L1210) was 6.28 and the pIC50 (KB) was 6.34.
For `C#CC1(O)[C@@H](CO)O[C@@H](n2cnc3c(O)nc(N)nc32)[C@@H]1O` (single isomer, unassigned), the pIC50 (L1210) was < 3.52 and the pIC50 (KB) was < 3.52.
With `O=c1[nH]cc(F)c(=O)[nH]1` [FLUOROURACIL] the Inhibition ratio (Mus musculus [1]) was 1%, the Inhibition ratio (Mus musculus [2]) was 50% and the Inhibition ratio (Mus musculus [3]) was 83%. For the same compound, the Inhibition ratio (Mus musculus [4]) was 25%, the Inhibition ratio (Mus musculus [5]) was 69% and the Inhibition ratio (Mus musculus [6]) was 59%. It also gave an Inhibition ratio (Mus musculus [7]) of 49%, an Inhibition ratio (Mus musculus [8]) of 40% and an Inhibition ratio (Mus musculus [9]) of 68%. The Inhibition ratio (Mus musculus [10]) was 50%.
`C#CC1(O)[C@@H](CO)O[C@@H](n2cc(F)c(=O)[nH]c2=O)[C@@H]1O` (single isomer, unassigned) gave a pIC50 (L1210) of 5.60 and a pIC50 (KB) of 5.85.
